Test results published in patent US12691070B2, “Cationic lipids and preparation method thereof” (RiboX Therapeutics HK Limited, priority 2023, dated 2026).

Experiments:
[1] = LNP size and polydispersity index (PDI) by dynamic light scattering; assay type: physicochemical; conditions: LNP with cirRNA (SEQ ID NO: 1); for Size: in nm (unit assumed)
Procedure: (§1) Ionizable lipid, DSPC, Cholesterol and DMG-PEG 2000 were mixed at a molar ratio of 50:10:38.5:1.5 in absolute ethanol. Circular RNA and linear mRNA payloads were suspended in 25 mM Acetate Buffer (pH 4.5). To form LNPs, three volumes of luciferase encoding RNA, in the form of cirRNA (SEQ ID NO:1) and mRNA (SEQ ID NO:2) respectively, were mixed with one volume of lipids in ethanol solution by microfluidic mixing with the Nanoassemblr Ignite (Precision Nanosystems) at a flow rate of 12 ml/min. The molar ratio of ionizable lipid to ribonucleotide was 15 or 6. The final lipid concentration in solution ranged from 1.5 mM to 6 mM. After encapsulation, the particles were dialyzed twice against PBS.
(§2) The LNP size and polydispersity index (PDI), determined by dynamic light scattering (DLS), and zeta potential were measured by a Zetasizer machine (Malvern). RNA concentration and encapsulation efficacy were analyzed by the Quant-IT Ribogreen kit by calculating the percentage encapsulation at 100%−(RNA-LNPs/RNA-LNPs with Triton X-100).

[2] = LNP zeta potential (Zetasizer); assay type: physicochemical; conditions: LNP with cirRNA (SEQ ID NO: 1)
Procedure: as §1, §2

[3] = RNA encapsulation efficacy by Quant-IT Ribogreen kit; assay type: physicochemical; conditions: LNP with cirRNA (SEQ ID NO: 1)
Procedure: as §1, §2

Hep G2 cells [4] = assay: In vitro expression of firefly-luciferase, Hep G2; assay type: cell-based; conditions: cirRNA (SEQ ID NO: 1) LNPs; firefly-luciferase luminescence; Hep G2 cells
Procedure: (§3) RAW 264.7 and Hep G2 cells were transfected with 100 ng/mL of RNA-LNPs encoding for firefly-luciferase. At 72 hours post transfection, the cells were washed and lysed. The luciferase expression was determined in the cell lysates with the luciferase assay reagent kit (Promega), according to the kit protocol, luciferase activity was measured by a luminometer.

RAW 264.7 cells [5] = assay: In vitro expression of firefly-luciferase, RAW 264.7; assay type: cell-based; conditions: cirRNA (SEQ ID NO: 1) LNPs; firefly-luciferase luminescence; RAW 264.7 cells
Procedure: as §3

Hep G2 cells [6] = assay: In vitro toxicity (CellTiter-Glo cell viability), Hep G2; assay type: cell-based; conditions: cirRNA (SEQ ID NO: 1) LNPs; Hep G2 cells;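 further: percent of untreated cells luminescence signal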
Procedure: (§4) RAW 264.7 and Hep G2 cells were transfected with 1 μg/mL RNA-LNPs. At 72 hours post transfection, cell viability was determined with the CellTiter-Glo® reagent kit, according to the kit protocol, measured by a luminometer.
(§5) The cell viability was calculated according to the following formula: […]

RAW 264.7 cells [7] = assay: In vitro toxicity (CellTiter-Glo cell viability), RAW 264.7; assay type: cell-based; conditions: cirRNA (SEQ ID NO: 1) LNPs; RAW 264.7 cells;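 further: percent of untreated cells luminescence signal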
Procedure: as §4, §5

BALB/C mice = assay: In vivo expression, whole-body luminescence (IVIS); conditions: cirRNA (SEQ ID NO: 1) LNPs, BALB/C mice
Procedure: 6-8 week old, female BALB/C mice were injected with 0.05 mg*kg-1 of RNA-LNPs encoding for firefly-luciferase by intravenous injection. At 6 hours post injection, animals were intraperitoneally injected with 15 mg/ml of Luciferin substrate and whole-body luminescence was determined by a bioluminescent in vivo imaging system (IVIS).

Structure (SMILES)	PDI [1]	Size [1]	Zeta (mV) [2] [mV]	Encapsulation Efficiency % [3] [%]	In vitro Expression HepG2 (Hep G2 cells [4])	In vitro Expression RAW (RAW 264.7 cells [5])	In vitro Viability HepG2 (Hep G2 cells [6]) [%]	In vitro Viability RAW (RAW 264.7 cells [7]) [%]	In vivo Expression (Whole Body) (BALB/C mice)
CCCCC/C=C\C/C=C\CCCCCCCCN(CCCCCCCC/C=C\C/C=C\CCCCC)CCOC(=O)NCc1ccncc1 [Lipid 35, 2-(di((9Z,12Z)-octadeca-9,12-dien-1-yl)amino)ethyl (pyridin-4-ylmethyl)carbamate]	0.115	116.3	−6.298	71	2.82E+02	6.25E+03	103	108	1.16E+05
CCCCCCCCCCCOC(=O)CCCCCN(CCCCCCCC(=O)OC(CCCCCCCC)CCCCCCCC)CCOC(=O)NCc1ncc[nH]1 [Lipid 159, heptadecan-9-yl 8-((2-((((1H-imidazol-2-yl)methyl)carbamoyl)oxy)ethyl)(6-oxo-6-(undecyloxy)hexyl)amino)octanoate]	0.1754	57.86	−5.631	84	8.41E+05	4.41E+04	92	90	1.95E+07
CCCCCCCCCC(=O)OCCCCCCCCN(CCCCCCCCOC(=O)CCCCCCCCC)CCOC(=O)NCCN(C)C [Lipid 202]	0.1932	60.75	16.36	93	2.49E+05	3.35E+02	94	92	2.33E+05
CCCCC/C=C\C/C=C\CCCCCCCCN(CCCCCCCC(=O)OC(CCCCCCCC)CCCCCCCC)CCCOC(=O)NCCN1CCN(C)CC1 [Lipid 273]	0.257	88.34	1.543	95	6.48E+06	1.35E+06	93	121	5.16E+06
CCCCCCCC/C=C\CCCCCCCCN(CCCCCCCCOC(=O)C(CCCCCC)CCCCCCCC)CCOC(=O)NCCN1CCOCC1 (stereo not drawn) [Lipid 215]	0.05226	62.22	−3.755	96	5.62E+04	7.31E+03	85	86	1.61E+07
CCCCCCCCC(CCCCCCCC)OC(=O)CCCCCCCN(CCCCCCCCOC(=O)C(CCCCCC)CCCCCCCC)CCCOC(=O)NCCN1CCN(C)CC1 (stereo not drawn) [Lipid 347]	0.2462	90.56	−0.6677	94	1.04E+06	4.27E+04	92	96	7.61E+06
CCCCCCCC/C=C\CCCCCCCCN(CCCCCCCCOC(=O)C(CCCCCC)CCCCCCCC)CCOC(=O)NCCCn1ccnc1 (stereo not drawn) [Lipid 217]	0.1439	60.05	1.061	94	2.45E+04	8.05E+03	82	90	7.35E+06
CCCCCCCCCCCOC(=O)CCCCCN(CCCCCC(=O)OCCCCCCCCCCC)CCOC(=O)NCc1ncc[nH]1 [Lipid 155, diundecyl 6,6′-((2-((((1H-imidazol-2-yl)methyl)carbamoyl)oxy)ethyl)azanediyl)dihexanoate]	0.1182	92.39	15.16	76	2.72E+04	5.98E+02	111	101	5.77E+07
CCCCC/C=C\C/C=C\CCCCCCCCN(CCCCCCCC(=O)OC(CCCCCCCC)CCCCCCCC)CCOC(=O)NCCCN(C)C [Lipid 130, heptadecan-9-yl 2-methyl-11-((9Z,12Z)-octadeca-9,12-dien-1-yl)-7-oxo-8-oxa-2,6,11-triazanonadecan-19-oate]	0.1685	145.8	11.37	99	5.31E+06	6.92E+05	91	90	1.08E+07
CCCCCCOC(=O)CCCCCCCCCCN(CCCCCCCCCCC(=O)OCCCCCC)CCOC(=O)NCCN1CCN(C)CC1 [Lipid 138, dihexyl 11,11′-((2-(((2-(4-methylpiperazin-1-yl)ethyl)carbamoyl)oxy)ethyl)azanediyl)diundecanoate]	0.1821	130.8	15.82	96	6.75E+01	9.75E+01	12	10	1.30E+05
CCCCCCCCCCCOC(=O)CCCCCN(CCCCCC(=O)OCCCCCCCCCCC)CCOC(=O)NCCN1CCCC1 [Lipid 151, diundecyl 6,6′-((2-(((2-(pyrrolidin-1-yl)ethyl)carbamoyl)oxy)ethyl)azanediyl)dihexanoate]	0.1693	98.37	20.18	89	8.79E+03	3.27E+01	110	99	1.18E+05
CCCCCCCCC(CCCCCC)C(=O)OCCCCCCCCN(CCCCCCCCOC(=O)C(CCCCCC)CCCCCCCC)CCCNCCCN(CC)CC (stereo not drawn) [Lipid 385]	0.2458	159	11.28	94	1.31E+05	1.37E+04	74	80	1.79E+06
CCCCCCOC(=O)CCCCCCCCCCN(CCCCCCCCCCC(=O)OCCCCCC)CCOC(=O)NCCCN(CC)CC [Lipid 137, hexyl 3-ethyl-12-(11-(hexyloxy)-11-oxoundecyl)-8-oxo-9-oxa-3,7,12-triazatricosan-23-oate]	0.1423	224.1	19.29	92	1.57E+03	1.21E+02	12	9	1.84E+05
CCCCCCCCCCCOC(=O)CCCCCN(CCCCCC(=O)OCCCCCCCCCCC)CCOC(=O)NCCN1CCCCC1 [Lipid 150, diundecyl 6,6′-((2-(((2-(piperidin-1-yl)ethyl)carbamoyl)oxy)ethyl)azanediyl)dihexanoate]	0.05565	91.37	17.84	79	1.44E+04	6.81E+02	114	104	7.27E+05
CCCCCCCCCCC(CCCCCCCC)COC(=O)CCCCCN(CCCCCCCCOC(=O)C(CCCCCC)CCCCCCCC)CCCOC(=O)NCCN(C)C (stereo not drawn) [Lipid 364]	0.2481	113.5	0.2395	89	1.11E+06	9.94E+04	81	64	4.73E+06
